Results taken from US20240174618A1, “SUBSTITUTED (2-HETEROARYLOXYPHENYL)SULFONATES, SALTS THEREOF AND THEIR USE AS HERBICIDAL AGENTS” (Bayer Aktiengesellschaft, priority 2021, published 2024).

What was measured:
Type in all cases: in vivo
[1] = tested on: Amaranthus retroflexus (AMARE); experiment: B. Herbicidal post-emergence efficacy, AMARE
Experimental: (§1) Seeds of mono- and dicotyledonous weed plants were placed in plastic pots in sandy loam soil (doubly sown with in each case one species of mono- or dicotyledonous weed plants per pot), covered with soil and cultivated in a greenhouse under controlled growth conditions. 2 to 3 weeks after sowing, the test plants were treated at the one-leaf stage. The compounds of the invention, formulated in the form of wettable powders (WP) or as emulsion concentrates (EC), were applied onto the green parts of the plants as aqueous suspension or emulsion with addition of 0.5% additive at a water application rate of 600 liters per hectare (converted). After the test plants had been kept in the greenhouse under optimum growth conditions for about 3 weeks, the activity of the preparations was rated visually in comparison to untreated controls.
(§2) For example, • 100% efficacy=plants have died, • 0% efficacy=like untreated control plants
(§3) Tables B1a to B12c below show the effects of selected inventive compounds of the general formula (I) according to table 1 on various harmful plants at an application rate corresponding to 1280 g/ha or less, which were obtained by the experimental procedure mentioned above.

Kochia scoparia (KCHSC) [2] = experiment: B. Herbicidal post-emergence efficacy, KCHSC; details: for Post-emergence efficacy against KCHSC in %: rated visually after about 3 weeks; for Post-emergence efficacy against KCHSC: 1280 g/ha
Experimental: as §1, §2, §3

[3] = tested on: Echinochloa crus-galli (ECHCG); experiment: A. Herbicidal pre-emergence efficacy, ECHCG; details: scored visually after about 3 weeks vs untreated controls
Text: (§4) Seeds of mono- and dicotyledonous weed plants were placed in plastic pots in sandy loam soil (doubly sown with one species each of mono- or dicotyledonous weed plants per pot) and covered with soil. The compounds of the invention, formulated in the form of wettable powders (WP) or as emulsion concentrates (EC), were then applied onto the surface of the covering soil as aqueous suspension or emulsion with addition of 0.5% additive at a water application rate of 600 liters per hectare (converted). After the treatment, the pots were placed in a greenhouse and kept under good growth conditions for the test plants. After about 3 weeks, the efficacy of the preparations was scored visually in comparison with untreated controls as percentages.
(§5) For example, • 100% efficacy=plants have died, • 0% efficacy=like untreated control plants.
(§6) Tables A1a to A12c below show the effects of selected compounds of the general formula (I) according to table 1 on various harmful plants at an application rate corresponding to 1280 g/ha or less, which were obtained by the experimental procedure mentioned above.

[4] = tested on: Abutilon theophrasti (ABUTH); experiment: A. Herbicidal pre-emergence efficacy, ABUTH; details: scored visually after about 3 weeks vs untreated controls
Text: as §4, §5, §6

Veronica persica (VERPE) [5] = experiment: B. Herbicidal post-emergence efficacy, VERPE
Experimental: as §1, §2, §3

[6] = tested on: Matricaria inodora (MATIN); experiment: A. Herbicidal pre-emergence efficacy, MATIN
Text: as §4, §5, §6

Setaria viridis (SETVI) = experiment: A. Herbicidal pre-emergence efficacy, SETVI
Text: as §4, §5, §6

Kochia scoparia (KCHSC) [7] = experiment: A. Herbicidal pre-emergence efficacy, KCHSC
Text: as §4, §5, §6

[8] = tested on: Amaranthus retroflexus (AMARE); experiment: A. Herbicidal pre-emergence efficacy, AMARE
Text: as §4, §5, §6

Poa annua (POAAN) [9] = experiment: A. Herbicidal pre-emergence efficacy, POAAN
Text: as §4, §5, §6

Veronica persica (VERPE) [10] = experiment: A. Herbicidal pre-emergence efficacy, VERPE
Text: as §4, §5, §6

Poa annua (POAAN) [11] = experiment: B. Herbicidal post-emergence efficacy, POAAN
Experimental: as §1, §2, §3

Stellaria media (STEME) [12] = experiment: A. Herbicidal pre-emergence efficacy, STEME
Text: as §4, §5, §6

[13] = tested on: Echinochloa crus-galli (ECHCG); experiment: B. Herbicidal post-emergence efficacy, ECHCG; details: 1280 g/ha, rated visually after about 3 weeks
Experimental: as §1, §2, §3

Lolium rigidum (LOLRI) = experiment: A. Herbicidal pre-emergence efficacy, LOLRI; details: dosage 1280 g/ha
Text: as §4, §5, §6

Stellaria media (STEME) [14] = experiment: B. Herbicidal post-emergence efficacy, STEME
Experimental: as §1, §2, §3

[15] = tested on: Abutilon theophrasti (ABUTH); experiment: B. Herbicidal post-emergence efficacy, ABUTH; details: rated visually after about 3 weeks
Experimental: as §1, §2, §3

[16] = tested on: Digitaria sanguinalis (DIGSA); experiment: A. Herbicidal pre-emergence efficacy, DIGSA; details: scored visually after about 3 weeks vs untreated controls
Text: as §4, §5, §6

[17] = tested on: Digitaria sanguinalis (DIGSA); experiment: B. Herbicidal post-emergence efficacy, DIGSA; details: 1280 g/ha, rated visually after about 3 weeks
Experimental: as §1, §2, §3

[18] = 320 g/ha, scored visually after about 3 weeks vs untreated controls
[19] = pre-emergence, dosage 1280 g/ha

Compound	Post-emergence efficacy against AMARE ([1]; 320 g/ha) [%]	Post-emergence efficacy against AMARE ([1]; 1280 g/ha) [%]	Post-emergence efficacy against KCHSC in % (Kochia scoparia (KCHSC) [2]; 320 g/ha) [%]	Post-emergence efficacy against KCHSC (Kochia scoparia (KCHSC) [2]) [%]	Pre-emergence efficacy against ECHCG ([3]; 1280 g/ha) [%]	Pre-emergence efficacy against ABUTH ([4]; 1280 g/ha) [%]	Post-emergence efficacy against VERPE (Veronica persica (VERPE) [5]; 320 g/ha) [%]	Post-emergence efficacy against VERPE (Veronica persica (VERPE) [5]; 1280 g/ha) [%]	Pre-emergence efficacy against SETVI (Setaria viridis (SETVI); dosage 320 g/ha) [%]	Pre-emergence efficacy against SETVI (Setaria viridis (SETVI); dosage 1280 g/ha) [%]	Pre-emergence efficacy against KCHSC (Kochia scoparia (KCHSC) [7]; [19]) [%]	Pre-emergence efficacy against AMARE in % ([8]; 320 g/ha) [%]	Pre-emergence efficacy against AMARE in % ([8]; 1280 g/ha) [%]	Pre-emergence efficacy against POAAN (Poa annua (POAAN) [9]; dosage 1280 g/ha) [%]	Pre-emergence efficacy against VERPE in % (Veronica persica (VERPE) [10]; 1280 g/ha) [%]	Post-emergence efficacy against POAAN (Poa annua (POAAN) [11]; 1280 g/ha) [%]	Pre-emergence efficacy against STEME (Stellaria media (STEME) [12]; dosage 1280 g/ha) [%]	Post-emergence efficacy against ECHCG in % [13] [%]	Post-emergence efficacy against STEME (Stellaria media (STEME) [14]; 1280 g/ha) [%]	Post-emergence efficacy against ABUTH in % ([15]; 1280 g/ha) [%]	also measured
CS(=O)(=O)Oc1ccccc1Oc1ncc(Cl)cn1 [Example I-1]	100	100	100	100	100	100	90	100	90	100	100	100	100	90	100	–	–	–	–	–	Post-emergence efficacy against AMARE ([1]; 80 g/ha): 100%; Post-emergence efficacy against KCHSC in % (Kochia scoparia (KCHSC) [2]; 80 g/ha): 90%; Pre-emergence efficacy against MATIN [6, 18]: 90%; Pre-emergence efficacy against MATIN [6, 19]: 100%; Pre-emergence efficacy against KCHSC (Kochia scoparia (KCHSC) [7]; pre-emergence, dosage 320 g/ha): 100%; Pre-emergence efficacy against AMARE in % ([8]; 80 g/ha): 100%; Pre-emergence efficacy against VERPE in % (Veronica persica (VERPE) [10]; 320 g/ha): 100%
CC(C)S(=O)(=O)Oc1ccccc1Oc1ncc(Cl)cn1 [Example I-18]	100	100	100	100	100	100	90	90	–	90	–	100	100	90	100	90	90	90	90	90	Pre-emergence efficacy against ECHCG ([3]; 320 g/ha): 90%; Pre-emergence efficacy against ABUTH ([4]; 320 g/ha): 90%; Pre-emergence efficacy against LOLRI (Lolium rigidum (LOLRI)): 90%; Pre-emergence efficacy against MATIN [6, 19]: 90%; Pre-emergence efficacy against VERPE in % (Veronica persica (VERPE) [10]; 320 g/ha): 90%
COCCS(=O)(=O)Oc1ccccc1Oc1ncc(Cl)cn1 [Example I-20]	90	100	90	100	100	100	90	100	90	100	100	–	90	90	–	90	100	–	100	90	Pre-emergence efficacy against STEME (Stellaria media (STEME) [12]; dosage 320 g/ha): 100%; Pre-emergence efficacy against ABUTH ([4]; 80 g/ha): 100%; Pre-emergence efficacy against ABUTH ([4]; 320 g/ha): 100%; Pre-emergence efficacy against LOLRI (Lolium rigidum (LOLRI)): 90%; Pre-emergence efficacy against MATIN [6, 19]: 100%; Pre-emergence efficacy against DIGSA ([16]; 320 g/ha): 100%; Pre-emergence efficacy against DIGSA ([16]; 1280 g/ha): 100%; Pre-emergence efficacy against KCHSC (Kochia scoparia (KCHSC) [7]; 80 g/ha, scored visually after about 3 weeks vs untreated controls): 90%; Pre-emergence efficacy against KCHSC (Kochia scoparia (KCHSC) [7]; pre-emergence, dosage 320 g/ha): 90%
O=S(=O)(CCCC(F)(F)F)Oc1ccccc1Oc1ccc(Cl)cn1 [Example I-26]	90	90	90	90	90	–	90	90	90	100	90	90	100	100	100	–	90	90	90	90	Pre-emergence efficacy against DIGSA ([16]; 1280 g/ha): 100%; Post-emergence efficacy against DIGSA in % [17]: 90%; Pre-emergence efficacy against POAAN (Poa annua (POAAN) [9]; dosage 320 g/ha): 90%
O=S(=O)(CCC1CC1(Cl)Cl)Oc1c(F)cccc1Oc1ncc(Cl)cn1 (centres unmarked) [Example I-51]	90	90	–	90	90	–	–	90	90	90	100	100	100	100	100	90	100	90	90	90	Post-emergence efficacy against AMARE ([1]; 80 g/ha): 90%; Pre-emergence efficacy against STEME (Stellaria media (STEME) [12]; dosage 320 g/ha): 90%; Pre-emergence efficacy against LOLRI (Lolium rigidum (LOLRI)): 90%; Pre-emergence efficacy against MATIN [6, 18]: 90%; Pre-emergence efficacy against MATIN [6, 19]: 90%; Post-emergence efficacy against STEME (Stellaria media (STEME) [14]; 80 g/ha): 90%; Post-emergence efficacy against STEME (Stellaria media (STEME) [14]; 320 g/ha): 90%; Pre-emergence efficacy against DIGSA ([16]; 320 g/ha): 90%; Pre-emergence efficacy against DIGSA ([16]; 1280 g/ha): 100%; Post-emergence efficacy against ABUTH in % ([15]; 320 g/ha): 90%; Pre-emergence efficacy against AMARE in % ([8]; 80 g/ha): 90%
O=S(=O)(CCC(F)=C(F)F)Oc1c(Br)cccc1Oc1ncc(Cl)cn1 [Example I-72]	100	100	100	100	–	90	100	100	90	100	90	90	100	100	90	90	100	100	100	100	Post-emergence efficacy against AMARE ([1]; 80 g/ha): 100%; Post-emergence efficacy against KCHSC in % (Kochia scoparia (KCHSC) [2]; 80 g/ha): 90%; Pre-emergence efficacy against STEME (Stellaria media (STEME) [12]; dosage 320 g/ha): 90%; Pre-emergence efficacy against LOLRI (Lolium rigidum (LOLRI)): 90%; Post-emergence efficacy against VERPE (Veronica persica (VERPE) [5]; 80 g/ha): 100%; Post-emergence efficacy against STEME (Stellaria media (STEME) [14]; 80 g/ha): 90%; Post-emergence efficacy against STEME (Stellaria media (STEME) [14]; 320 g/ha): 100%; Pre-emergence efficacy against DIGSA ([16]; 320 g/ha): 90%; Pre-emergence efficacy against DIGSA ([16]; 1280 g/ha): 100%; Post-emergence efficacy against ABUTH in % ([15]; 320 g/ha): 90%; Pre-emergence efficacy against VERPE in % (Veronica persica (VERPE) [10]; 320 g/ha): 90%
O=S(=O)(CC1CC(F)(F)C1)Oc1c(Br)cccc1Oc1ncc(Cl)cn1 [Example I-75]	100	100	100	100	100	100	100	100	90	100	100	90	100	100	100	90	100	90	100	100	Post-emergence efficacy against AMARE ([1]; 80 g/ha): 100%; Post-emergence efficacy against POAAN (Poa annua (POAAN) [11]; 320 g/ha): 90%; Post-emergence efficacy against KCHSC in % (Kochia scoparia (KCHSC) [2]; 80 g/ha): 90%; Pre-emergence efficacy against STEME (Stellaria media (STEME) [12]; dosage 320 g/ha): 100%; Post-emergence efficacy against VERPE (Veronica persica (VERPE) [5]; 80 g/ha): 100%; Post-emergence efficacy against STEME (Stellaria media (STEME) [14]; 320 g/ha): 100%; Pre-emergence efficacy against DIGSA ([16]; 320 g/ha): 90%; Pre-emergence efficacy against DIGSA ([16]; 1280 g/ha): 100%; Post-emergence efficacy against DIGSA in % [17]: 90%; Post-emergence efficacy against ABUTH in % ([15]; 80 g/ha): 90%; Post-emergence efficacy against ABUTH in % ([15]; 320 g/ha): 90%; Pre-emergence efficacy against KCHSC (Kochia scoparia (KCHSC) [7]; pre-emergence, dosage 320 g/ha): 90%; Pre-emergence efficacy against AMARE in % ([8]; 80 g/ha): 90%; Pre-emergence efficacy against POAAN (Poa annua (POAAN) [9]; dosage 320 g/ha): 100%; Pre-emergence efficacy against VERPE in % (Veronica persica (VERPE) [10]; 320 g/ha): 90%
